Legend:
[1] = tested on: m4 receptors (CHO m4 cells); experiment: cAMP formation in CHO m4 cells treated with pertussis toxin; format: cell-based
From the text: Muscarinic agonists stimulate the formation of cAMP up to 10 fold in CHO m4 cells treated with pertussisi toxin and the pharmacology is consistent with the mediation by m4 receptors. Eckols K. Soc. Neurosci Abstr., 21:2040 (1995).

[2] = tested on: D2 receptor subtype; experiment: pharmacological studies at D2 receptor subtype
[3] = target: 5HT1D receptor subtype; experiment: 5HT1D receptor affinity; format: binding
[4] = target: muscarinic receptors (^3 H-oxotremorine-M binding); experiment: ^3 H-oxotremorine-M binding inhibition; settings: radioligand ^3 H-oxotremorine-M; read-out: inhibition constant (Ki), binding of ^3 H-oxotremorine-M

For `CCCCCCOc1nsnc1C1=CCCN(C)C1` [xanomeline, 3-(4-hexyloxy-1,2,5-thiadiazol-3-yl)-1,2,5,6-tetrahydro-1-methylpyridine], the “stimulation of the formation of cAMP” value [1] was “efficaciously and potently stimulated the formation of CAMP”, the “activity at the D2 receptor subtype” value [2] was “active at the D2 receptor subtype” and the Ki [3] was 180 nM. For the same compound, the Ki [4] was 2 nM.
